“Also recorded” adds a separate entry of the source. Read-outs that look alike come from different tables or passages of the source.
Assays:
M14 cells = assay: CellTiter-Glo viability assay, M14 melanoma cells (library screening, individual compounds, time course); type: cell-based, human; conditions: for IC50: Homo sapiens, M14
Protocol: (§1) Mixture libraries were solubilized in 3% DMSO/H2O and added to polypropylene 384 well plates (Greiner cat #781280). 1,250 CHO-K1, A549, or M14 cells were plated in 384-well plates in 5 μL of serum-free media (F12 for CHO-K1 and A549, DMEM for M14). Test compounds and gefitinib (pharmacological assay control) were prepared as 10-point, 1:3 serial dilutions starting at 300 then added to the cells (5 μL per well) using the Biomek NX^P. Plates were incubated for 72 h at 37° C., 5% CO2 and 95% RH. After incubation, 5 μL of CellTiter-Glo® (Promega cat #: G7570) were added to each well, and incubated for 15 min at room temperature. Luminescence was recorded using a Biotek Synergy H4 multimode microplate reader. Viability was expressed as a percentage relative to wells containing media only (0%) and wells containing cells treated with 1% DMSO only (100%). Three parameters were calculated on a per-plate basis: (a) the signal-to-background ratio (SB); (b) the coefficient for variation [CV; CV=(standard deviation/mean)×100)] for all compound test wells; and (c) the Z′-factor (18). The IC50 value of the pharmacological control (gefitinib, LC Laboratories #G-4408) was also calculated to ascertain the assay robustness. Time course viability assay was performed as described for library screening with luminescence measurements performed at 4, 24, 48, and 72 h.

CHO-K1 cells = assay: CellTiter-Glo viability assay, CHO-K1 healthy control cells; type: cell-based; conditions: individual compounds
Protocol: as §1

[1] = system: B16/F10 murine metastatic melanoma; assay: Hexosaminidase viability assay, B16/F10; type: cell-based; conditions: Mus musculus; for IC50: p53 mutation
Protocol: Hexosaminidase assay was used to study the effects of 2155-14 and 2155-18 on cell viability or cell proliferation of both B16/F-10 and SKMEL-28 cells
(Landegren, U. Measurement of cell numbers by means of the endogenous enzyme hexosaminidase. Applications to detection of lymphokines and cell surface antigens. J Immunol Methods 1984, 67, 379-388). In brief, cells were plated in 96 well plates, grown overnight and treated the next day with increasing concentrations of compounds (0-50 μM) for 48 h. After 48 h of treatment, media was discarded and cells were washed with PBS to remove residual media from wells. Hexosaminidase substrate (75 μL) (Sigma Aldrich; cat #N9376) was added to each well, incubated at 37° C. for 30 min followed by addition of 112.5 μL of developer into each well. Final absorbance was measured at λ=405 nm. Cell growth was calculated as percent viability=[([…])×100], where A and B were the absorbance of treated and control cells, respectively.

MDA-MB-231 cell line = assay: Viability of MDA-MB-231 breast cancer cells; type: cell-based
HDAC6 = HDAC6 (Homo sapiens, UniProt Q9UBN7); assay: HDAC inhibition testing; type: biochemical; conditions: up to 100 μM
HDAC6, sequence (Q9UBN7 whole entry, species assumed): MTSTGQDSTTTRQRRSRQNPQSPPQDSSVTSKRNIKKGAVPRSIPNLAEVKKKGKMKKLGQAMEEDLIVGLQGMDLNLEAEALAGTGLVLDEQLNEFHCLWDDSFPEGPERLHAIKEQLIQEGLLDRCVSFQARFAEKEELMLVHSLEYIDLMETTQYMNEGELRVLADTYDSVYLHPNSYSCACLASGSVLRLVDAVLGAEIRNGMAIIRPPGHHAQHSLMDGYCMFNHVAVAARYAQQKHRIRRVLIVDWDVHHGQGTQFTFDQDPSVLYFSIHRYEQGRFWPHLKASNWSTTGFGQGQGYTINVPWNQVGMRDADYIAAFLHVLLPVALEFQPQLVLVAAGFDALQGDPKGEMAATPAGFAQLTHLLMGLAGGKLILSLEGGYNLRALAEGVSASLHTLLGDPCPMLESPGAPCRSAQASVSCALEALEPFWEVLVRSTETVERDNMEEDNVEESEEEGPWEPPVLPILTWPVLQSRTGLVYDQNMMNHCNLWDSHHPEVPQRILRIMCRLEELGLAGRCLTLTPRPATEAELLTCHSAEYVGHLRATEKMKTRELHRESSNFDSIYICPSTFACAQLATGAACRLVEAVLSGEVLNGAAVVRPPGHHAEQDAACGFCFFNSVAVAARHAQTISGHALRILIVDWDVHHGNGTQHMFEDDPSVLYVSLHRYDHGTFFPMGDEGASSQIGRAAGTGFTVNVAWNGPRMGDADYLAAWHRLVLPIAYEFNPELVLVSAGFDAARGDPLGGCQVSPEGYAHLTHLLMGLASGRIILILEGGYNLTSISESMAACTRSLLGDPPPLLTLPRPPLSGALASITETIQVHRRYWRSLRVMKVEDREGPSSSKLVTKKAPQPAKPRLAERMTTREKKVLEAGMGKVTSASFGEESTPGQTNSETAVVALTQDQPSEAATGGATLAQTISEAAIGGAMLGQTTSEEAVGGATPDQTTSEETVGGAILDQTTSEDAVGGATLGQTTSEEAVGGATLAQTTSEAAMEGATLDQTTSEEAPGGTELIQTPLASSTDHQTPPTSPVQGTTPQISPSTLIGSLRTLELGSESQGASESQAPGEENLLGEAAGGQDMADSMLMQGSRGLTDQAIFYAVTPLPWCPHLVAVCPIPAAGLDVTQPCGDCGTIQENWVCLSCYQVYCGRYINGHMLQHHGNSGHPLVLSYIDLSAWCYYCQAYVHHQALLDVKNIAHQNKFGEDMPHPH

[2] = system: MAPK/PI3K dual phosphorylation of WM266-4 cells; assay: MAPK-Akt flow cytometry assay; type: cell-based, human; conditions: 48 h, 25 μM
Protocol: WM266-4 cells were seeded at 250,000 cells/well in E-MEM medium supplemented with 10% FBS and 1% penicillin/streptomycin in 6 well plates (Greiner Bio-One CellStar cat #655180) and allowed to adhere overnight. After incubation cells were treated with control (25 μM dabrafenib+25 μM trametinib), and 25 μM 2155-14 and 18 for 24 and 48 hours. Manufacturer's instructions for Muse™ PI3K/MAPK Dual Pathway Activation kit (EMD Millipore MCH200108) were followed. Cells were harvested, washed with PBS, and re-suspended in 1× assay buffer supplemented with fixation buffer and incubated on ice for 10 min. Cells were permeabilized with permeablization buffer supplied with the kit and incubated with an antibody cocktail (5 μL of Anti-Akt/PKB+5 μL of Anti-phospho-Akt). Cells were analyzed on Muse flow cytometer (EMD Millipore) using PI3K/MAPK Dual Pathway sub-routine.

[3] = system: LC3-II and beclin-1 in WM266-4 cells; assay: Western blotting for LC3 and beclin-1, WM266-4; type: cell-based, human; conditions: for LC3 and beclin-1, early time point: 30 min, 5-50 μM
Summary of the method: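 WM266-4 and M14 melanoma cells, grown in E-MEM or RPMI-1640 with 10% FBS, were analysed by immunoblot with chemiluminescent detection. Band intensities were normalised to β-actin and expressed as fold of untreated control.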

IC50 (M14 cells; read-out: IC50 for M14)	IC50 [1]	HDAC6 inhibition (HDAC6)	IC50 (M14 cells; individual compounds, read-out: IC50 for M14 cells)	Structure (SMILES)	activity towards M14 cells (M14 cells; individual compounds)	selectivity over CHO-K1 healthy control cells (CHO-K1 cells)	selectivity against MDA-MB-231 cell line (MDA-MB-231 cell line)	effect on MAPK/PI3K cell populations [2]	LC3 and beclin-1, early time point [3]	LC3-II level, WM266-4 ([3]; 24 h, 5-200 μM)	inhibition of M14 cell viability at highest concentration (M14 cells; 100 μM)	IC50 (CHO-K1 cells; Cricetulus griseus, CHO-K1)	cytotoxicity at 10 µM ([1]; starting at 10 μM, read-out: inhibition of B16/F10 viability)	PI3K-activated cells [2]	cells with single pathway activation [2]	decrease of cell population with dual pathway activation vs untreated control [2]	increase of cells where both pathways were inactive [2]	beclin-1 level, WM266-4 ([3]; 24 h, 5-200 μM)
745 ± 60 nM	1150 nM	lack of HDAC inhibition	–	O=C1NC[C@H](Cc2ccccc2)N(C[C@@H]2CCCN2C[C@H](Cc2ccccc2)N2C[C@H](Cc3ccc(O)cc3)N(CCC34CC5CC(CC(C5)C3)C4)C(=O)C2=O)C1=O [Compound 2155-18, (S)-4-(2-(adamantan-1yl)ethyl)-1-((S)-1-((S)-2-(((S)-6-benzyl-2,3-dioxopiperazin-1-yl)methyl)pyrrolidin-1-yl)-3-phenylpropan-2-yl)-5-(4-hydroxybenzyl)piperazine-2,3-dione]	improved activity	maintaining selectivity for CHO-K1 cells	selective	no effect on either cell population	No statistical significance between untreated control and test conditions	dose dependent inhibitory effect on basal autophagy	–	–	–	–	–	–	–	–
–	2700 ± 200 nM	lack of HDAC inhibition	3600 ± 300 nM	O=C1NC[C@H](Cc2ccccc2)N(C[C@@H]2CCCN2C[C@@H](CC2CCCCC2)N2C[C@H](Cc3ccc(O)cc3)N(CCc3ccccc3)C(=O)C2=O)C1=O [Compound 2155-14, (S)-1((R)-1((S)-2-(((S)-6-benzyl-2,3-dioxopiperazin-1-yl)methyl)pyrrolidin-1-yl)-3-cyclohexylpropan-2-yl)-5-(4-hydroxybenzyl)-4-phenethylpiperazine-2,3-dione]	–	–	selective	–	autophagy potentiation as compared to the untreated control was not observed; also recorded: No statistical significance between untreated control and test conditions	Dose dependent increase	not able to fully inhibit	> 100 µM	~100%	absence of PI3K activation	not significantly affected	~20%	approximately 10%	Dose dependent increase
